Results published in paper PMC5107130 (Pharmacological Research, 2016).
Entries after “also recorded” stand apart in the source; their conditions may differ. Like-named read-outs stand apart in the source and are kept apart here.

How the values were obtained:
[1] = Counterscreen: AzMC fluorescence signal generated by the H2S donor GYY4137; conditions: mean ± SEM, n = 3; for Confirmation (% inhibition of GYY4137-induced AzMC fluorescence): 30 μM
[2] = molecular target: T1, Recombinant full length human CBS (Homo sapiens, UniProt P35520); experiment: AzMC fluorescence assay of CBS-derived H2S production; assay type: biochemical; conditions: for Initial screen (% inhibition of CBS-induced AzMC fluorescence) / Confirmation (% inhibition of CBS-induced AzMC fluorescence): 30 μM; for Confirmation (% inhibition of CBS-induced AzMC fluorescence) / % inhibition of CBS-induced AzMC fluorescence: mean ± SEM, n = 3; for % inhibition of CBS-induced AzMC fluorescence: copper compounds
T1 sequence (P35520 1-551): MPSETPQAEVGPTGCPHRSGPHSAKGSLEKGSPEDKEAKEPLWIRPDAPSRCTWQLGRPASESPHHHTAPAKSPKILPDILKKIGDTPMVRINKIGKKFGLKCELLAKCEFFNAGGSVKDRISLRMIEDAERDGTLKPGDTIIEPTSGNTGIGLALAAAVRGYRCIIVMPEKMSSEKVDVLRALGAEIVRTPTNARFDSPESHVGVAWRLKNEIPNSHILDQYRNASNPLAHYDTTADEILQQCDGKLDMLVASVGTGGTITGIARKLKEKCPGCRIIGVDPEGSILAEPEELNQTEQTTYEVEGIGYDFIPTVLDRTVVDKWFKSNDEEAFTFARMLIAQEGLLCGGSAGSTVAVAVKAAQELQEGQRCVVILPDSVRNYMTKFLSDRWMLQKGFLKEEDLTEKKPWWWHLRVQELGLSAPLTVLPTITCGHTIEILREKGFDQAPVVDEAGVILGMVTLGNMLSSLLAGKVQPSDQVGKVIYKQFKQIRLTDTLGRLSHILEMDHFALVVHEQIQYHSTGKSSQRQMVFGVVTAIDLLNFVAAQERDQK

HCT116 cells [3] = experiment: Cell proliferation, xCELLigence system; assay type: cell-based, human; conditions: Cell Index, 48 h, concentration in the value
[4] = molecular target: T1, Recombinant full length human CBS; experiment: Methylene blue assay of CBS-derived H2S; assay type: biochemical; conditions: read-out: % inhibition of CBS-induced methylene blue signal
HCT116 cells [5] = experiment: Cytotoxicity, lactate dehydrogenase; assay type: cell-based, human; conditions: 48 h
[6] = read-out: % inhibition of recombinant CBS activity
[7] = read-out: % inhibition of CBS-induced AzMC fluorescence, 10 μM, mean ± SEM, n = 3
[8] = read-out: % inhibition of CBS-induced AzMC fluorescence, 100 μM, mean ± SEM, n = 3
[9] = read-out: Confirmation (% inhibition of CBS-induced AzMC fluorescence), 30 μM, mean ± SEM, n = 3
[10] = read-out: Initial screen (% inhibition of CBS-induced AzMC fluorescence), 30 μM

Cc1cc(C(C#N)c2ccc(Cl)cc2)c(Cl)cc1NC(=O)c1cc(I)cc(I)c1O (centres unmarked) [Closantel]
Confirmation (% inhibition of GYY4137-induced AzMC fluorescence) [1]: 31 ± 2% | inhibition at 30 µM ([2]; read-out: Confirmation (% inhibition of CBS-induced AzMC fluorescence)): 25 ± 5% | inhibition at 30 µM ([2]; read-out: Initial screen (% inhibition of CBS-induced AzMC fluorescence)): 43%

NNCc1cccc(O)c1 [3-hydroxybenzylhydrazine]
inhibition at 10 µM [2, 6]: 24% | inhibition at 30 µM [2, 6]: 37% | inhibition at 100 µM [2, 6]: 68%

N.N.N.N.N.N.N.N.N.N.N.N.N.N.[Cl-].[Cl-].[Cl-].[Cl-].[Cl-].[Cl-].[O-2].[O-2].[Ru+3].[Ru+3].[Ru+4] [Ruthenium red]
Confirmation (% inhibition of GYY4137-induced AzMC fluorescence) [1]: 72 ± 3% | Initial screen (% inhibition of CBS-induced AzMC fluorescence) [2]: 72% | Confirmation (% inhibition of CBS-induced AzMC fluorescence) [2]: 72 ± 6%

O=C(O)C1=CC(=C(c2ccc(O)c(C(=O)O)c2)c2ccc(O)c(C(=O)O)c2)C=CC1=O [Aurintricarboxylic acid]
% inhibition of GYY4137-induced AzMC fluorescence ([1]; 10 μM): −3 ± 2% | Confirmation (% inhibition of GYY4137-induced AzMC fluorescence) [1]: −2 ± 1% | % inhibition of GYY4137-induced AzMC fluorescence ([1]; 100 μM): 6 ± 1% | Effect on HCT116 cell proliferation (words) (HCT116 cells [3]): did not inhibit cell proliferation at 10–100 μM; also recorded: at 300 μM increased cell proliferation | Effect on HCT116 cell proliferation (words) (HCT116 cells [3]; listed as aurintricarboxylic acid): stimulated cell proliferation at 300 μM | IC50 [2]: ~3 µM | inhibition at 10 µM [2, 7]: 72 ± 1% | inhibition at 100 µM [2, 8]: 94 ± 1% | inhibition at 30 µM [2, 9]: 87 ± 1% | inhibition at 30 µM [2, 10]: 59% | inhibition at 10 µM [4]: 38 ± 2% | inhibition at 30 µM [4]: 61 ± 1% | inhibition at 100 µM [4]: 72 ± 1%

CC(C)/N=c1\cc2n(-c3ccc(Cl)cc3)c3ccccc3nc-2cc1Nc1ccc(Cl)cc1 [Clofazimine]
Confirmation (% inhibition of GYY4137-induced AzMC fluorescence) [1]: 28 ± 5% | inhibition at 30 µM [2, 9]: 30 ± 7% | inhibition at 30 µM [2, 10]: 47%

Oc1c(Cl)cc(Cl)c(Cl)c1Cc1c(O)c(Cl)cc(Cl)c1Cl.Oc1c(Cl)cc(Cl)c(Cl)c1Cc1c(O)c(Cl)cc(Cl)c1Cl [Hexachlorophene, 2,2′-methylenebis(3,4,6-trichlorophenol)-3,4,6-trichloro-2-[(2,3,5-trichloro-6-hydroxyphenyl)methyl]phenol]
Cytotoxicity / LDH release in HCT116 cells (HCT116 cells [5]): exerted cytotoxic effects | % inhibition of GYY4137-induced AzMC fluorescence ([1]; 10 μM): −4 ± 2% | Confirmation (% inhibition of GYY4137-induced AzMC fluorescence) [1]: 1 ± 1% | % inhibition of GYY4137-induced AzMC fluorescence ([1]; 100 μM): −2 ± 1% | Effect on HCT116 cell proliferation (words) (HCT116 cells [3]): did not affect HCT116 proliferation up to 3 μM; also recorded: fully inhibited cell proliferation at 10 μM; also recorded: inhibits HCT116 proliferation at fairly low concentrations (10 μM) | IC50 [2]: ~60 µM | inhibition at 10 µM [2, 7]: 3 ± 1% | inhibition at 100 µM [2, 8]: 70 ± 1% | inhibition at 30 µM [2, 9]: 12 ± 1% | inhibition at 30 µM [2, 10]: 48% | inhibition at 10 µM [4]: 21 ± 1% | inhibition at 30 µM [4]: 31 ± 1% | inhibition at 100 µM [4]: 64 ± 1%

CC(=O)[O-].CC(=O)[O-].[Cu+2] [CuAc, copper(II) acetate]
% inhibition of GYY4137-induced AzMC fluorescence ([1]; copper compounds, 0.1 μM): 2 ± 2% | % inhibition of GYY4137-induced AzMC fluorescence ([1]; copper compounds, 0.3 μM): 12 ± 1% | % inhibition of GYY4137-induced AzMC fluorescence ([1]; copper compounds, 1 μM): 17 ± 1% | % inhibition of CBS-induced AzMC fluorescence ([2]; 0.1 μM): 39 ± 1% | % inhibition of CBS-induced AzMC fluorescence ([2]; 0.3 μM): 66 ± 1% | % inhibition of CBS-induced AzMC fluorescence ([2]; 1 μM): 92 ± 1% | IC50 ([2]; read-out: IC50, inhibition of recombinant CBS (CBS-induced AzMC fluorescence), cell-free, 2 mM L-cysteine and homocysteine): ~0.2 µM

NC(=O)N/N=C/c1ccc([N+](=O)[O-])o1 [Nitrofurazone]
Confirmation (% inhibition of GYY4137-induced AzMC fluorescence) [1]: 48 ± 5% | inhibition at 30 µM [2, 9]: 54 ± 2% | inhibition at 30 µM [2, 10]: 52%

CC(=O)[C@H]1CC[C@H]2[C@@H]3CCC4=CC(=O)CC[C@]4(C)[C@H]3CC[C@]12C [Progesterone]
Confirmation (% inhibition of GYY4137-induced AzMC fluorescence) [1]: 64 ± 1% | inhibition at 30 µM [2, 9]: 75 ± 3% | inhibition at 30 µM [2, 10]: 68%

N#C/C(=C\c1ccc(O)c(O)c1)C(=O)NCCCNC(=O)/C(C#N)=C/c1ccc(O)c(O)c1 [Tyrphostin AG 537]
Confirmation (% inhibition of GYY4137-induced AzMC fluorescence) [1]: 48 ± 2% | Initial screen (% inhibition of CBS-induced AzMC fluorescence) [2]: 49% | Confirmation (% inhibition of CBS-induced AzMC fluorescence) [2]: 42 ± 1%

Chlorophyllide Cu complex Na salt
Confirmation (% inhibition of GYY4137-induced AzMC fluorescence) [1]: 78 ± 3% | Initial screen (% inhibition of CBS-induced AzMC fluorescence) [2]: 80% | Confirmation (% inhibition of CBS-induced AzMC fluorescence) [2]: 97 ± 1% | Initial screen (% inhibition of CBS-induced AzMC fluorescence) ([2]; listed as Chlorophyllide cu complex Na salt): 82%

NC(N)=NC(=O)c1nc(Cl)c(N2CCCCCC2)nc1N [5-(N,N-hexamethylene)amiloride]
Confirmation (% inhibition of GYY4137-induced AzMC fluorescence) [1]: 54 ± 4% | Initial screen (% inhibition of CBS-induced AzMC fluorescence) [2]: 72% | Confirmation (% inhibition of CBS-induced AzMC fluorescence) [2]: 58 ± 3%

O=C1C=CC(=O)c2c(O)cccc21 [Juglone]
Confirmation (% inhibition of GYY4137-induced AzMC fluorescence) [1]: 61 ± 3%
